For orientation: AUC(0-inf) means total exposure, with the tail of the curve extrapolated. Low readings indicate low exposure, high ones high exposure. What is called AUC(0-t) is the area under the concentration-time curve up to a stated or last time point. A higher AUC(0-t) goes with high exposure. In general, Cmax refers to the maximum level reached in the sampled fluid or tissue. As usually defined, the half-life is the time needed for the level to fall by half in the phase considered. A high value points to slow loss. The term solubility denotes the concentration that dissolves in the medium under given conditions. A high value points to a readily soluble substance.

Each structure is given as a SMILES string.

The results in this text go back to patent US8993614B2, “Substituted pyrrolidine-2-carboxamides” (Hoffmann-La Roche Inc., priority 2012, dated 2015).

One series in a line: in vivo. Conditions: iv, 4.37 mg/kg.
A further series in a line: physchem. Conditions: aqueous medium.

In the case of `COc1cc(C(=O)O)ccc1NC(=O)[C@@H]1N[C@@H](CC(C)(C)C)[C@](C#N)(c2ccc(Cl)cc2F)[C@H]1c1cccc(Cl)c1F` [Compound B, 4-((2R,3S,4R,5S)-3-(3-chloro-2-fluorophenyl)-4-(4-chloro-2-fluorophenyl)-4-cyano-5-neopentylpyrrolidine-2-carboxamido)-3-methoxybenzoic acid], in “in vivo”, the total exposure AUC(0-inf) was 21600 ng·h/mL, the AUC(0-t) is 20900 ng·h/mL, the peak level (Cmax) was 4390 ng/mL and the half-life is 5.07 h. In “physchem”, this molecule came in with a solubility of less than 1 µg/mL.
